Measurements: patent US7405181B2, “Bio-fertilizer composition for promoting growth or orchid plants and application” (National Taiwan University, priority 2005, dated 2008)

Legend:
Phalaenopsis amabilis = experiment: Flowering rates with bio-fertilizer and plant growth substance; format: in vivo; conditions: room temperature
Description: (§1) Phalaenopsis amabili and Doritaenopsis casablanca Joy×Phalaenopsis taida Pinlong are treated with either bio-fertilizer composition Mb or plant growth regulators Gibberellic Acid (GA3), or both. The flowering rates are observed after incubation.

[1] = tested on: Doritaenopsis casablanca Joy × Phalaenopsis taida Pinlong; experiment: as above; format: in vivo; conditions: room temperature
Description: as §1

Compound: C=C1C[C@]23C[C@@]1(O)CC[C@H]2[C@@]12C=C[C@H](O)[C@@](C)(C(=O)O1)[C@H]2[C@@H]3C(=O)O [NM + GA3, Gibberellic Acid]
- flowering rate (Phalaenopsis amabilis): 75%
- flowering rate [1]: 71%
